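All cell lines were grown in 96-well plates and treated with compound for 48 hours. At the TGI there is no net growth.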
How the values were obtained:
Assay in all cases: NCI tumour cell line growth inhibition, 48 h
A549 NSCLC = test system: A549 NSCLC
ACHN renal = test system: ACHN renal
HCT-116 colon = test system: HCT-116 colon
MDA-MB-231 breast = test system: MDA-MB-231 breast
NCI-H226 lung = test system: NCI-H226 lung
NCI-H23 lung = test system: NCI-H23 lung
SNB-19 CNS = test system: SNB-19 CNS
T-47D breast = test system: T-47D breast
CCRF-CEM leukemia = test system: CCRF-CEM leukemia
SK-MEL-28 melanoma = test system: SK-MEL-28 melanoma

Structure (SMILES) | TGI (A549 NSCLC) | TGI (ACHN renal) | TGI (HCT-116 colon) | TGI (MDA-MB-231 breast) | TGI (NCI-H226 lung) | TGI (NCI-H23 lung) | TGI (SNB-19 CNS) | TGI (T-47D breast) | TGI (CCRF-CEM leukemia) | TGI (SK-MEL-28 melanoma)
C=C(Cl)CN1c2ccccc2C=Cc2ccccc21 | > 100 µM | 35.4 µM | 29 µM | 35.7 µM | 70.2 µM | > 100 µM | > 100 µM | 65.2 µM | – | –
CCOP(=O)(Cc1nc(C#N)c(N)o1)OCC | – | > 100 µM | > 100 µM | > 100 µM | > 100 µM | – | > 100 µM | – | > 100 µM | > 100 µM
CCN(CC)C(=O)c1cc([N+](=O)[O-])c(=O)n2c1[nH]c1ccccc12 | > 100 µM | > 100 µM | > 100 µM | > 100 µM | > 100 µM | > 100 µM | > 100 µM | > 100 µM | > 100 µM | > 100 µM
O=C1c2cc3ncsc3cc2C(=O)c2c(O)ccc(O)c21 | > 100 µM | > 100 µM | > 100 µM | > 100 µM | > 100 µM | > 100 µM | > 100 µM | – | > 100 µM | > 100 µM
Nc1c(C(=O)O)nnc2cc(Cl)ccc12 | > 100 µM | > 100 µM | > 100 µM | > 100 µM | > 100 µM | > 100 µM | > 100 µM | > 100 µM | > 100 µM | –
NC(=S)NS(=O)(=O)c1ccc(Cl)cc1 | > 100 µM | > 100 µM | > 100 µM | > 100 µM | > 100 µM | > 100 µM | > 100 µM | > 100 µM | > 100 µM | > 100 µM
CC1=NN2CCC(=O)N=C2S1 | > 100 µM | > 100 µM | > 100 µM | > 100 µM | > 100 µM | > 100 µM | > 100 µM | > 100 µM | > 100 µM | > 100 µM
Cc1nccn1S(=O)(=O)c1ccc(Cl)cc1 | > 100 µM | > 100 µM | > 100 µM | 78.9 µM | > 100 µM | > 100 µM | > 100 µM | > 100 µM | > 100 µM | > 100 µM
CC(C)N1[C@@H]2CCCC[C@H]2N(C(C)C)[P+]1=O | > 100 µM | > 100 µM | > 100 µM | – | > 100 µM | > 100 µM | – | > 100 µM | > 100 µM | –
CC(C)(C)OC(=O)NNCC(O)COc1ccccc1 (stereo not given) | > 100 µM | > 100 µM | > 100 µM | > 100 µM | > 100 µM | > 100 µM | > 100 µM | > 100 µM | > 100 µM | > 100 µM
Cc1ccc2c(c1)Nc1ccccc1P2(=O)O | > 100 µM | > 100 µM | > 100 µM | > 100 µM | > 100 µM | > 100 µM | > 100 µM | > 100 µM | > 100 µM | > 100 µM

— PubChem BioAssay (NCI)
